Results taken from patent US20080312164A1 (priority 2006, published 2008).

Key:
[1] = tested on: Du145 cells; experiment: Calcein AM cytotoxicity assay, Du145; type: cell-based; details: Homo sapiens, DU-145; Du145, Calcein AM, 72 h; read-out: IC50
Text: (§1) Five serial 1:2 dilutions were made with anhydrous DMSO at 100× the final concentration used in the assay.

[2] = tested on: Du145 cells; experiment: Cell Titer-Glo cytotoxicity assay, Du145; type: cell-based; details: Homo sapiens, DU-145; Du145, Cell Titer-Glo, 72 h; read-out: IC50
Text: as §1

[3] = tested on: HCT-116 cells; experiment: Calcein AM cytotoxicity assay, HCT-116; type: cell-based; details: Homo sapiens; HCT-116, Calcein AM, 72 h; read-out: IC50
Text: as §1

[4] = tested on: HCT-116 cells; experiment: Cell Titer-Glo cytotoxicity assay, HCT-116; type: cell-based; details: Homo sapiens; HCT-116, Cell Titer-Glo, 72 h; read-out: IC50
Text: as §1

[5] = tested on: Hep3B cells; experiment: Calcein AM cytotoxicity assay, Hep3B; type: cell-based; details: Homo sapiens, Calcein AM, 72 h, read-out: IC50
Text: as §1

[6] = tested on: Hep3B cells; experiment: Cell Titer-Glo cytotoxicity assay, Hep3B; type: cell-based; details: Homo sapiens, Cell Titer-Glo, 72 h, read-out: IC50
Text: as §1

[7] = tested on: SF-268 cells; experiment: Calcein AM cytotoxicity assay, SF-268; type: cell-based; details: Homo sapiens; SF-268, Calcein AM, 72 h; read-out: IC50
Text: as §1

[8] = tested on: SF-268 cells; experiment: Cell Titer-Glo cytotoxicity assay, SF-268; type: cell-based; details: Homo sapiens; SF-268, Cell Titer-Glo, 72 h; read-out: IC50
Text: as §1

[9] = tested on: SK-OV-3 cells; experiment: Calcein AM cytotoxicity assay, SK-OV-3; type: cell-based; details: Homo sapiens; SK-OV-3, Calcein AM, 72 h; read-out: IC50
Text: as §1

[10] = tested on: SK-OV-3 cells; experiment: Cell Titer-Glo cytotoxicity assay, SK-OV-3; type: cell-based; details: Homo sapiens; SK-OV-3, Cell Titer-Glo, 72 h; read-out: IC50
Text: as §1

[11] = tested on: NCI/ADR RES cells; experiment: Calcein AM cytotoxicity assay, NCI/ADR-RES; type: cell-based; details: Homo sapiens, Calcein AM, 72 h, read-out: IC50
Text: as §1

[12] = tested on: NCI/ADR RES cells; experiment: Cell Titer-Glo cytotoxicity assay, NCI/ADR-RES; type: cell-based, human; details: Homo sapiens; NCI/ADR-RES, Cell Titer-Glo, 72 h; read-out: IC50
Text: as §1

[13] = tested on: NCI-H460 cells; experiment: Calcein AM cytotoxicity assay, NCI-H460; type: cell-based; details: Homo sapiens; NCI-H460, Calcein AM, 72 h; read-out: IC50
Text: as §1

[14] = tested on: NCI-H460 cells; experiment: Cell Titer-Glo cytotoxicity assay, NCI-H460; type: cell-based, human; details: Homo sapiens; NCI-H460, Cell Titer-Glo, 72 h; read-out: IC50
Text: as §1

[15] = tested on: MCF7 cells; experiment: Calcein AM cytotoxicity assay, MCF7; type: cell-based; details: Homo sapiens; MCF7, Calcein AM, 72 h; read-out: IC50
Text: as §1

[16] = tested on: MCF7 cells; experiment: Cell Titer-Glo cytotoxicity assay, MCF7; type: cell-based, human; details: Homo sapiens; MCF7, Cell Titer-Glo, 72 h; read-out: IC50
Text: as §1

[17] = tested on: NmuMG mouse mammary normal epithelial cells; experiment: Calcein AM cytotoxicity assay, NmuMG; type: cell-based; details: Epithelial cell, NmuMG, Calcein AM, 72 h, read-out: IC50
Text: as §1

[18] = tested on: NmuMG mouse mammary normal epithelial cells; experiment: Cell Titer-Glo cytotoxicity assay, NmuMG; type: cell-based; details: Mus musculus, Epithelial cell; NmuMG, Cell Titer-Glo, 72 h; read-out: IC50
Text: as §1

[19] = tested on: HT-29 cells; experiment: MTT cytotoxicity assay, HT-29; type: cell-based; details: Homo sapiens; HT-29, MTT, 24 h; read-out: IC50
[20] = tested on: human cancer cell lines; experiment: Cytotoxicity across the panel of human cancer cell lines (average, high-throughput assays); type: cell-based; details: for IC50: average across eight human cancer cell lines, MTT (HT-29) values excluded, read-out: Cancerous Average IC50 / Average IC50 in Cancer Cell Lines; for further fold increase in potency from multiple phenyl rings: average IC50 compared with single-ring 23 and 38
Text: as §1

`S=C=N[C@H]1CCCc2ccccc21` [Compound 31, (S)-1-isothiocyanato-1,2,3,4-tetrahydronaphthalene] was tested, and the IC50 [1] was 12.4 µM, the IC50 [2] was 17.4 µM and the IC50 [3] was 33 µM. For the same compound, the IC50 [4] was 12.2 µM, the IC50 [5] was 13.1 µM and the IC50 [6] was 20.1 ± 0.53 µM. It also gave an IC50 [7] of 8.51 µM, an IC50 [8] of 10.5 µM and an IC50 [9] greater than 30 µM. For the same compound, the IC50 [10] was 12.7 µM, the IC50 [11] was 25.1 µM and the IC50 [12] was 30.9 µM. It also gave an IC50 [13] of 25.4 µM, an IC50 [14] of 31.6 µM and an IC50 [15] of 14.5 µM. It also gave an IC50 [16] of 14.4 µM, an IC50 [17] of 18.6 µM and an IC50 [18] of 15.4 µM. For the same compound, the IC50 [19] was greater than 50 µM and the IC50 [20] was 17.2 µM.

Work on `S=C=NCc1cccc(-c2ccccc2)c1` [Compound 34, 1-(isothiocyanatomethyl)-3-phenylbenzene] yielded an IC50 [1] of 7.11 µM, an IC50 [2] of 3.87 µM and an IC50 [3] of 2.93 µM. The IC50 [4] was 3.33 µM, the IC50 [5] was 6.9 µM and the IC50 [6] was 2.11 µM. It also gave an IC50 [7] of 3.95 µM, an IC50 [8] of 3.39 µM and an IC50 [9] of 4.92 µM. The IC50 [10] was 3.83 µM, the IC50 [11] was 1.47 µM and the IC50 [12] was 2.23 µM. The IC50 [13] was 3.53 µM, the IC50 [14] was 5.29 µM and the IC50 [15] was 2.52 µM. For the same compound, the IC50 [16] was 2.13 µM, the IC50 [17] was 5.95 µM and the IC50 [18] was 3.06 µM. The IC50 [19] was 28.8 µM, the “selectivity for cancer cells over NmuMG cells” value ([20]; IC50 in NmuMG versus average IC50 in cancer cell lines) was “non-selective” and the “further fold increase in potency from multiple phenyl rings” value (“further fold increase in potency” below) [20] was roughly 2 fold. The IC50 [20] was 3.27 µM.

In the case of `S=C=NCc1ccc(-c2ccccc2)cc1` [Compound 35, 1-(isothiocyanatomethyl)-4-phenylbenzene], the IC50 [1] is reported as 5.49 µM, the IC50 [2] is reported as 11 µM and the IC50 [3] is reported as 7.54 µM. For the same compound, the IC50 [4] was 4.83 µM, the IC50 [5] was 4.33 µM and the IC50 [6] was 4.51 µM. For the same compound, the IC50 [7] was 6.26 µM, the IC50 [8] was 4.4 µM and the IC50 [9] was less than 3.13 µM. The IC50 [10] was 4.65 µM, the IC50 [11] was 6.73 µM and the IC50 [12] was 12.1 µM. For the same compound, the IC50 [13] was 10.5 µM, the IC50 [14] was 15 µM and the IC50 [15] was 2.91 µM. It also gave an IC50 [16] of 6.72 µM, an IC50 [17] of less than 12.5 µM and an IC50 [18] of 65.7 µM. For the same compound, the IC50 [19] was greater than 50 µM, the “further fold increase in potency” value [20] was roughly 2 fold and the IC50 [20] was 7.89 µM.

`S=C=NCc1ccc(Oc2ccccc2)cc1` [Compound 36, 1-(isothiocyanatomethyl)-4-phenoxybenzene] showed an IC50 [1] of 12.2 µM, an IC50 [2] of 8.24 µM and an IC50 [3] of 4.19 µM. It also gave an IC50 [4] of 3.55 µM, an IC50 [5] of 7.17 µM and an IC50 [6] of 3.95 µM. For the same compound, the IC50 [7] was 6.17 µM, the IC50 [8] was 5.06 µM and the IC50 [9] was 3.93 µM. It also gave an IC50 [10] of 3.99 µM, an IC50 [11] of 3.93 µM and an IC50 [12] of 3.3 µM. The IC50 [13] was 4.47 µM, the IC50 [14] was 9.12 µM and the IC50 [15] was 6.34 µM. The IC50 [16] was 6.16 µM, the IC50 [17] was less than 12.5 µM and the IC50 [18] was 187 µM. For the same compound, the IC50 [19] was 37.6 µM, the “further fold increase in potency” value [20] was roughly 2 fold and the IC50 [20] was 4.84 µM.

`S=C=NCCc1ccccc1` [Compound 38, 1-(2-isothiocyanatoethyl)benzene] was tested, and the IC50 [1] was 43.1 µM, the IC50 [2] was 10.9 µM and the IC50 [3] was 12.7 µM. The IC50 [4] was 10.3 µM, the IC50 [5] was 46.2 µM and the IC50 [6] was 11.1 µM. For the same compound, the IC50 [7] was 8.66 µM, the IC50 [8] was 7.2 µM and the IC50 [9] was 16.7 µM. The IC50 [10] was 13.5 µM, the IC50 [11] was 10.5 µM and the IC50 [12] was 12.1 µM. For the same compound, the IC50 [13] was 12.1 µM, the IC50 [14] was 13.7 µM and the IC50 [15] was 23.7 µM. For the same compound, the IC50 [16] was 13.1 µM, the IC50 [17] was less than 12.5 µM and the IC50 [18] was 17.7 µM. The IC50 [19] was 33.2 µM and the IC50 [20] was 11.5 µM.

For `S=C=NCC(c1ccccc1)c1ccccc1` [Compound 40, 2-isothiocyanato-1,1-diphenylethane], the IC50 [1] was 3.51 µM, the IC50 [2] was 3.65 µM and the IC50 [3] was 3.26 µM. For the same compound, the IC50 [4] was 1.22 µM, the IC50 [5] was 3.58 µM and the IC50 [6] was 4.3 µM. The IC50 [7] was 3.49 µM, the IC50 [8] was 3.33 µM and the IC50 [9] was 5.26 µM. The IC50 [10] was 4.52 µM, the IC50 [11] was 3.95 µM and the IC50 [12] was 4.47 µM. For the same compound, the IC50 [13] was 9.91 µM, the IC50 [14] was 5.64 µM and the IC50 [15] was 3.62 µM. For the same compound, the IC50 [16] was 3.68 µM, the IC50 [17] was 5.81 µM and the IC50 [18] was 3.62 µM. For the same compound, the IC50 [19] was 22.9 µM, the “further fold increase in potency” value [20] was roughly 2 fold and the IC50 [20] was 4.11 µM.
